The values below come from patent US20110112299A1, “TETRACYCLIC COMPOUND” (KYOWA HAKKO KIRIN CO., LTD., priority 2008, published 2011).

In assay [1] the target is T1, recombinant human progesterone receptor (Homo sapiens, UniProt P06401).
T1 construct: purchased Panvera/Invitrogen P2899 (kit P2895)
T1 sequence (P06401 675-933 limits assumed): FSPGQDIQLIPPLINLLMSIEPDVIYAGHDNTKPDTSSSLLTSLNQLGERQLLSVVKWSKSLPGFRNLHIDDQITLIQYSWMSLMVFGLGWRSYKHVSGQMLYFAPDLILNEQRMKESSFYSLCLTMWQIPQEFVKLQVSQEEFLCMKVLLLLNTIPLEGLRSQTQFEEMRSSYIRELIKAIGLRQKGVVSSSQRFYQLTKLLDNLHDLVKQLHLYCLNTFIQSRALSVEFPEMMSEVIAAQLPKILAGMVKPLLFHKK
Description: Human progesterone receptor assay (fluorescence polarization, Test Example 2). It is filed as binding. The settings on record: at a concentration of 1000 nmol/L. As to the method: In this assay, a fluorescence polarization assay kit (Panvera/Invitrogen, product number: P2895) was used. The recombinant human progesterone receptor (product number: P2899), the Fluoromore (trademark)-labeled progesterone (PL Green, product number: P2897), and the basic buffer solution (product number: P2901) which were used in the assay kit had been stored at −80° C. until used. A buffer solution for the assay was prepared by adding 250 fold dilution of 1 mol/L DTT to the basic buffer solution to give a final concentration of 4 mmol/L.
The assay was performed as follows. The test compound was diluted to 2-fold of the desired concentration with the buffer solution for the assay, and 16 μL of that was added to each well. […] The fluorescence polarization value of each well was measured using a plate reader (PerkinElmer, Fusion or Envision). […] To a positive control group, mifepristone (RU-486) was added so as to give a final concentration of 1 μmol/L. The progesterone receptor binding rate (%) was calculated by the following formula.
Progesterone receptor binding rate (%)=100×[1−(fluorescence polarization value of test compound solution−fluorescence polarization value of positive control solution)/(fluorescence polarization value of negative control solution−fluorescence polarization value of positive control solution)]
Background: Fluorescence polarisation rises when a labelled molecule tumbles more slowly, as on binding a larger partner.

For assay [2], the system named is IL-1β induced IL-6 production (A549 cells). In words: Inhibition assay for IL-1β induced IL-6 production in A549 cells (Test Example 3). The settings on record: at a concentration of 100 nmol/L, IL-1β stimulation, relative to dexamethasone. It is filed as cell-based, human. As for the experimental part:
A549 cells cultured in F-12 medium supplemented with 10% bovine serum for 3 to 5 days were transferred to a 96-well plate (50000 cells/well) and then were cultured overnight. […] After the medium was removed by suction, 60 μL of F-12 medium was added to each well, and 20 μL of the test compound diluted to 5-fold of the desired concentration with F-12 medium or 20 μL of 4 μmol/L dexamethasone was added thereto. The test compound and the dexamethasone used here were prepared beforehand by dissolving in dimethyl sulfoxide (DMSO) and diluting with F-12 medium so that the final concentration of DMSO became 0.1% v/v or lower. After 30-minute incubation under 5% CO2 atmosphere at 37° C., 20 μL of 4 nmol/L IL-1β diluted with F-12 medium was added to each well, and then incubation was performed under a 5% CO2 atmosphere at 37° C. for 12 to 18 hours. The 96-well plate was centrifuged at 300×g at 4° C. for 5 minutes, and then the culture supernatant was collected for use as a sample for IL-6 measurement. The IL-6 produced in the culture supernatant was quantified by the ELISA method (R&D Systems, product number: DY206, DouSet ELISA Development System Human IL-6), and the production inhibition rate was calculated by the following formula. […]

The test system of assay [3] is transcription-promoting activity via the glucocorticoid receptor (A549/MMTV-LTR cells). It is filed as cell-based. To be noted: at a concentration of 300 nmol/L; relative to dexamethasone. As to the method:
A pGL4.14 plasmid (Promega, product number: AY864928) having a cloned MMTV-LTR fragment upstream of the luciferase gene (−200 to +100 relative to the transcription initiation site) was introduced into A549 cells, and the obtained strain which is constitutively resistant to a selective antibiotic hygromycin B (A549/MMTV-LTR) was used for evaluation. The A549/MMTV-LTR cells were transferred to a 96-well plate (25000 cells/well) and were cultured overnight. […] Next, 20 μL of the test compound diluted to 5-fold of the desired concentration with F-12 medium or 20 μL of 4 μmol/L dexamethasone was added thereto, and the mixture was incubated under 5% CO2 at 37° C. for 6 hours. To each well, 50 μL of a luminescence reagent (Promega, product number: E2550 or E2650) was added, and the mixture was stirred to dissolve the cells, and the luciferase activity was measured by a plate reader (PerkinElmer, TopCount).
MMTV activity (%)=100×(luminescence amount in the presence of the compound−luminescence amount in the absence of the compound)/(luminescence amount in the presence of dexamethasone−luminescence amount in the absence of the compound)

As to `CC/C(=C1\c2cc3cnn(C)c3cc2COc2ccccc21)c1cccc(NS(C)(=O)=O)c1` [Compound 2, (Z)-5-{1-[3-(methanesulfonamide)phenyl]propylidene}-1-methyl-5,11-dihydrobenzo[6,7]oxepino[4,3-f]indazole], in assay [1], the “inhibitory activity (progesterone receptor binding rate)” value is listed as at most 10%. Moreover, the “IL-6 production inhibitory activity” value in assay [2] was at least 80%. In assay [3], this molecule gave an MMTV activity of at most 10%.
